This experiment has as its system Monosodium Iodoacetate (MIA) Osteoarthritis in Rats. The experiment is described as follows: MIA-induced osteoarthritis in rats, oral treatment, histological evaluation (modified Mankin score). As to conditions: oral every 24 hours day 3-20, conjugate of Example 2 (35% mol/mol) 88.5 mg/kg, mixture 16.2 mg/kg carnosine + 72.3 mg/kg HA, naproxen 10 mg/kg, day 21, versus MIA-control, FIG. 7. The class given is in vivo. The procedure:
OA was induced in the posterior knee joints of the rats being tested, by the intra-articular injection of MIA: 25 μl of saline containing 1 mg/kg of MIA were injected into the joint (knee) of the right paw of each animal (under treatment) through the infrapatal ligament, whereas the left joint received an equal volume of saline 0.9% (Sagar D R et al, Ann. Rheum. Dis., 2013, 73: 1558-1565).
Male Sprague-Dawley rats, of about 230 g each, were used, 20 rats per group.
Group 1: MIA-control: the animals were treated by MIA induction and subsequently with distilled water administered orally every 24 hours from the 3rd day after MIA until the 20th day, end of the experimentation.
Group 2: MIA+HA/carnosine conjugate: the animals were treated by MIA induction and subsequently with the above-mentioned conjugate every 24 hours from the 3rd day after MIA until the 20th day. The conjugate used for the experimentation was prepared according to Example 2, it was then derivatized at 35% mol/mol, the dose, administered orally, was equal to 88.5 mg/kg of conjugate (16.2 mg of carnosine and 72.3 mg of HA).
Group 3: MIA+HA/carnosine mixture: the animals were treated by MIA induction and subsequently with HA/carnosine every 24 hours starting from the 3rd day after MIA up to the 20th day. […]

Take `COc1ccc2cc([C@H](C)C(=O)O)ccc2c1` [naproxen]: the “Histological evaluation (modified Mankin Histological score 0-12; histological damage and cartilage degeneration)” value is recorded as “totally comparable to the effect elicited by naproxen”.

Values taken from US20220031797A1, “PHARMACEUTICAL COMPOSITIONS CONTAINING HYALURONIC ACID AND CARNOSINE AND RELATIVE USE” (FIDIA FARMACEUTICI S.P.A., priority 2017, published 2022).
